Counter-ions that a name gives are not always drawn. Like-named read-outs stand apart in the source and are kept apart here.
Biological target: MAP4K-1 enzyme (Homo sapiens, UniProt Q92918)
Test: FRET one step binding assay (tracer displacement)
Details: for inhibition at 1 µM / % Inhibition at 1 μM: 1 μM compound; for inhibition at 10 µM / % Inhibition at 10 μM: 10 μM compound
Procedure: This is a one step binding assay based on the binding and displacement of the labeled tracer, where compound addition is followed by addition of the anti-GST tagged europium (Eu) as the donor and Alexa Fluor-labeled tracer as the acceptor.
Test compounds were dissolved in dimethylsulfoxide (DMSO) to prepare 10.0 mM stock solutions and diluted to the desired concentration. The final concentration of DMSO in the reaction was 3% (v/v). The assay mixture was prepared by mixing 2 nM of the Eu-Anti-GST Antibody and 5 nM MAP4K-1 enzyme in the Kinase buffer containing 50 mM HEPES (pH 7.5), 10 mM MgCl2, 1 mM EGTA, 0.01% Brij-35 with or without the desired concentration of the compound. The reaction was incubated on ice for 15 min. […] After shaking for 5 min the reaction was further incubated for 1 hour at room temperature and this was kept at 4° C. and read on ARTEMIS reader as per the kit instructions (Thermo). […] The activity was calculated as percent of control reaction. IC50 values were calculated from dose response curve by nonlinear regression analysis using GraphPad Prism software.

Sequence of MAP4K-1 enzyme (Q92918 whole entry): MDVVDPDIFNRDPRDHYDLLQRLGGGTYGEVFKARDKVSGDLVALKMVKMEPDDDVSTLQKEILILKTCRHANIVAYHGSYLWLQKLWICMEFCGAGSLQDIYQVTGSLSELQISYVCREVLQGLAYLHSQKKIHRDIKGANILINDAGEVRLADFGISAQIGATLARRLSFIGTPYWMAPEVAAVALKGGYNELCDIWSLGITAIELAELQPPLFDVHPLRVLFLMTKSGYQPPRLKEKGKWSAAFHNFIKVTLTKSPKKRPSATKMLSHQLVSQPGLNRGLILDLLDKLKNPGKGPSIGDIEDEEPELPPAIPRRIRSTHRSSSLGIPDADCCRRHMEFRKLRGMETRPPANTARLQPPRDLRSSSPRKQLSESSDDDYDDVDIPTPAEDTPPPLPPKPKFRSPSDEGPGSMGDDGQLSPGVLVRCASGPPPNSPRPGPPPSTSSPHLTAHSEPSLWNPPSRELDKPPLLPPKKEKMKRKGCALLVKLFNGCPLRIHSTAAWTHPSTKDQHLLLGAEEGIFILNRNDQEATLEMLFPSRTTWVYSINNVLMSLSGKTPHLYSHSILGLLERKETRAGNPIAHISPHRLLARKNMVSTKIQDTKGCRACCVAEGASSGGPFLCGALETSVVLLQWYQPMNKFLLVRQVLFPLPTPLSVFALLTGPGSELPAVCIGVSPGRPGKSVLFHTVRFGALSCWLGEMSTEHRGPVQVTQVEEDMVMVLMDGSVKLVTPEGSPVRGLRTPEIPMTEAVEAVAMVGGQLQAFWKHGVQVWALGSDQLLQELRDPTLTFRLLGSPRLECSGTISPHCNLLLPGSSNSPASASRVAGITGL

SMILES	inhibition at 1 µM	inhibition at 10 µM	IC50 (read-out: IC50)	IC50 (IC50 (nM))	other results
COCCOc1ccc(Nc2nc(Nc3cc4c(cc3OC)CCN(C)C4)ncc2Cl)c(P(C)(C)=O)c1 [Example 50, (2-((5-Chloro-2-((6-methoxy-2-methyl-1,2,3,4-tetrahydroisoquinolin-7-yl)amino)pyrimidin-4-yl)amino)-5-(2-methoxyethoxy)phenyl)dimethyl phosphine oxide]	92.7%	94.8%	< 50 nM		
COc1cc2c(cc1Nc1ncc(Cl)c(Nc3ccc(O[C@H]4CCOC4)cc3P(C)(C)=O)n1)CN(C)CC2 [Example 48, (S)-(2-((5-Chloro-2-((6-methoxy-2-methyl-1,2,3,4-tetrahydroisoquinolin-7-yl)amino)pyrimidin-4-yl)amino)-5-((tetrahydrofuran-3-yl)oxy)phenyl)dimethylphosphineoxide]	84.2%	81.4%	< 50 nM		
CCN1CCc2cc(OC)c(Nc3ncc(Cl)c(Nc4ccc(OS(=O)(=O)F)cc4P(C)(C)=O)n3)cc2C1 [Example 9, 4-((5-Chloro-2-((2-ethyl-6-methoxy-1,2,3,4-tetrahydroisoquinolin-7-yl)amino)pyrimidin-4-yl)amino)-3-(dimethylphosphoryl) phenyl sulfofluoridate dihydrochloride]	78.5%	78.8%		< 50 nM	
COc1cc2c(cc1Nc1ncc(Cl)c(Nc3ccc(OS(=O)(=O)F)cc3P(C)(C)=O)n1)CN(C1COC1)CC2 [Example 16, 4-((5-Chloro-2-((6-methoxy-2-(oxetan-3-yl)-1,2,3,4-tetrahydroisoquinolin-7-yl)amino)pyrimidin-4-yl)amino)-3-(dimethylphosphoryl)phenyl sulfurofluoridate dihydrochloride]	87.3%	86%		< 50 nM	
COc1cc2c(cc1Nc1ncc(Cl)c(Nc3cccc(OS(=O)(=O)F)c3P(C)(C)=O)n1)CN(C)CC2 [Example 19, 3-((5-Chloro-2-((6-methoxy-2-methyl-1,2,3,4-tetrahydroisoquinolin-7-yl)amino)pyrimidin-4-yl)amino)-2-(dimethylphosphoryl) phenylsulfofluoridate dihydrochloride]	76.6%	78.2%		< 50 nM	
COc1cc2c(cc1Nc1ncc(Cl)c(Nc3cc(OS(=O)(=O)F)ccc3P(C)(C)=O)n1)CN(C)CC2 [Example 18, 3-((5-Chloro-2-((6-methoxy-2-methyl-1,2,3,4-tetrahydroisoquinolin-7-yl)amino)pyrimidin-4-yl)amino)-4-(dimethylphosphoryl)phenyl sulfurofluoridate dihydrochloride]	87.3%	83.2%		< 50 nM	
[2H]C([2H])([2H])Oc1cc2c(cc1Nc1ncc(Cl)c(Nc3ccc(OS(=O)(=O)F)cc3P(C)(C)=O)n1)C([2H])([2H])NCC2 [Example 40, 4-((5-Chloro-2-((6-methoxy-d3-1,2,3,4-tetrahydroisoquinolin-7-yl-1,1-d2)amino)pyrimidin-4-yl)amino)-3-(dimethylphosphoryl)phenyl sulfofluoridate dihydrochloride]	83.3%	84%		< 50 nM	
COc1cc2c(cc1Nc1ncc(Cl)c(Nc3ncc(OS(=O)(=O)F)cc3P(C)(C)=O)n1)CN(C)CC2 [Example 20, 6-((5-Chloro-2-((6-methoxy-2-methyl-1,2,3,4-tetrahydroisoquinolin-7-yl)amino)pyrimidin-4-yl)amino)-5-(dimethylphosphoryl)pyridin-3-yl sulfofluoridate dihydrochloride]	80.1%	75.5%		< 50 nM	
COc1cc2c(cc1Nc1ncc(Cl)c(Nc3ccc(C(F)(F)F)cc3P(C)(C)=O)n1)CN(C)CC2 [Example 55, (2-((5-Chloro-2-((6-methoxy-2-methyl-1,2,3,4-tetrahydroisoquinolin-7-yl)amino)pyrimidin-4-yl)amino)-5-(trifluoromethyl)phenyl) dimethylphosphine oxide]	94.6%	95.3%	< 50 nM		
COc1cc2c(cc1Nc1ncc(Cl)c(Nc3ccc(OCC(F)F)cc3P(C)(C)=O)n1)CN(C)CC2 [Example 46, (2-((5-Chloro-2-((6-methoxy-2-methyl-1,2,3,4-tetrahydroisoquinolin-7-yl)amino)pyrimidin-4-yl)amino)-5-(2,2-difluoroethoxy)phenyl) dimethylphosphine oxide]	73.6%	73.9%	< 50 nM		
COc1cc2c(cc1Nc1ncc(Cl)c(Nc3ccc(OS(=O)(=O)F)cc3P(C)(C)=O)n1)CN(CCF)CC2 [Example 13, 4-((5-Chloro-2-((2-(2-fluoroethyl)-6-methoxy-1,2,3,4-tetrahydroisoquinolin-7-yl)amino)pyrimidin-4-yl)amino)-3-(dimethylphos-phoryl)phenylsulfofluoridate dihydrochloride]	79.7%	81%		< 50 nM	
COc1cc2c(cc1Nc1ncc(Cl)c(Oc3ccccc3P(C)(C)=O)n1)CN(C)CC2 [Example 59, (2-((5-Chloro-2-((6-methoxy-2-methyl-1,2,3,4-tetrahydroisoquinolin-7-yl)amino)pyrimidin-4-yl)oxy)phenyl)dimethylphosphine oxide]	83.1%	87.3%	< 50 nM		
COc1cc2c(cc1Nc1ncc(Cl)c(Nc3cc(F)c(OS(=O)(=O)F)cc3P(C)(C)=O)n1)CN(C)CC2 [Example 27, 4-((5-Chloro-2-((6-methoxy-2-methyl-1,2,3,4-tetrahydroisoquinolin-7-yl)amino)pyrimidin-4-yl)amino)-5-(dimethylphosphoryl)-2-fluorophenyl sulfofluoridate dihydrochloride]	81.1%	82.6%		< 50 nM	
COc1cc2c(cc1Nc1ncc(Cl)c(Nc3ccc(C(F)F)cc3P(C)(C)=O)n1)CN(C)CC2 [Example 54, (2-((5-Chloro-2-((6-methoxy-2-methyl-1,2,3,4-tetrahydroisoquinolin-7-yl)amino)pyrimidin-4-yl)amino)-5-(difluoromethyl)phenyl)dimethylphosphine oxide]	93.4%	93.7%	< 50 nM		
COc1cc2c(cc1Nc1ncc(Cl)c(Nc3ccc(OS(=O)(=O)F)cc3P(C)(C)=O)n1)CN(CC(F)(F)F)CC2.Cl.Cl [Example 7, 4-((5-Chloro-2-((6-methoxy-2-(2,2,2-trifluoroethyl)-1,2,3,4-tetrahydroisoquinolin-7-yl)amino)pyrimidin-4-yl)amino)-3-(dimethyllphosphoryl)phenyl sulfurofluoridate dihydrochloride]					% Inhibition at 1 μM: 37.71%; % Inhibition at 10 μM: 69.74%
COc1cc2c(cc1Nc1ncc(Cl)c(Nc3ccc(OS(=O)(=O)F)cc3P(C)(C)=O)n1)C(C)N(C)CC2 (racemic) [Example 12, ±4-((5-chloro-2-((6-methoxy-1,2-dimethyl-1,2,3,4-tetrahydroisoquinolin-7-yl)amino)pyrimidin-4-yl)amino)-3-(dimethylphos-phoryl)phenylsulfurofluoridate dihydrochloride]	87.5%	85.9%		< 50 nM	
[2H]C([2H])([2H])Oc1cc2c(cc1Nc1ncc(Cl)c(Nc3ccc(OS(=O)(=O)F)cc3P(C)(C)=O)n1)CNCC2 [Example 39, 4-((5-Chloro-2-((6-methoxy-d3-1,2,3,4-tetrahydroisoquinolin-7-yl)amino)pyrimidin-4-yl)amino)-3-(dimethylphosphoryl)phenyl sulfofluoridate dihydrochloride]	75.1%	87%		< 50 nM	
[2H]C([2H])([2H])N1CCc2cc(OC)c(Nc3ncc(Cl)c(Nc4ccc(OS(=O)(=O)F)cc4P(C)(C)=O)n3)cc2C1 [Example 4, 4-((5-Chloro-2-((6-methoxy-2-(methyl-d3)-1,2,3,4-tetrahydroisoquinolin-7-yl)amino)pyramidin-4-yl)amino)-3-(dimethylphosphoryl) phenylsulfurofluoridate dihydrochloride]	72.9%	78.4%		< 50 nM	
COc1cc2c(cc1Nc1ncc(Cl)c(Nc3ccc(OS(=O)(=O)F)cc3P(C)(C)=O)n1)CN(C)C(C)C2 (single isomer, unassigned; isomer 2) [Example 34, 4-((5-Chloro-2-((6-methoxy-2,3-dimethyl-1,2,3,4-tetrahydroisoquinolin-7-yl)amino)pyrimidin-4-yl)amino)-3-(dimethylphosphoryl)phenyl sulfofluoridate dihydrochloride (Isomer 2)]					IC50: < 50 nM; % Inhibition at 1 μM (1 µM): 84.26%; % Inhibition at 10 μM (10 µM): 86.64%
COc1cc2c(cc1Nc1ncc(Cl)c(Nc3ccc(C(=O)N(C)CCF)cc3P(C)(C)=O)n1)CN(C)CC2 [Example 52, 4-((5-Chloro-2-((6-methoxy-2-methyl-1,2,3,4-tetrahydroisoquinolin-7-yl)amino)pyrimidin-4-yl)amino)-3-(dimethylphosphoryl)-N-(2-fluoroethyl)-N-methyl benzamide]	88.2%	85.5%	< 50 nM		
